US20120178180A1, “METHODS FOR THE IDENTIFICATION OF ZAP-70 INTERACTING MOLECULES AND FOR THE PURIFICATION OF ZAP-70” (priority 2006, published 2012)

Target: T1, phosphorylated ZAP-70 (Homo sapiens, UniProt P43403)
T1 construct: endogenous in cells; host or cells: Jurkat cells (clone E6-1, ATCC TIB-152), pervanadate treated
T1 sequence (P43403 1-619): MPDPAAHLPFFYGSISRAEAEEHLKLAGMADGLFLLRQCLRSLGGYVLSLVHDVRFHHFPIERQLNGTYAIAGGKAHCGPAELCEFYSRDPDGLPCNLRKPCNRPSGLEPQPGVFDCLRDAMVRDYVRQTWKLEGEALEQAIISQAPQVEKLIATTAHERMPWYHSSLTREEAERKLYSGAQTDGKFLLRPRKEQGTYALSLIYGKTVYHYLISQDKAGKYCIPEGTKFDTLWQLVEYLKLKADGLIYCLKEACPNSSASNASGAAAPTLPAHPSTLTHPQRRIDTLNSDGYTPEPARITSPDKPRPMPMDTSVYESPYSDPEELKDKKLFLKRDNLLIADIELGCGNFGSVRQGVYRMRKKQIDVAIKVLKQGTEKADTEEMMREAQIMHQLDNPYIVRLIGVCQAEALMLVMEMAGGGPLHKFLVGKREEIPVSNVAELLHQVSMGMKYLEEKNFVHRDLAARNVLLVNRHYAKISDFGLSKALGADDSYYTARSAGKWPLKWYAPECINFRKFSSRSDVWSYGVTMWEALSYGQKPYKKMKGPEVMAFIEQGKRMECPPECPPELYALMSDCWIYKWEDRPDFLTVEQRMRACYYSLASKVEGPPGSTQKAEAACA
Experiment: Drug pulldown with immobilized aminopyrido-pyrimidin ligand 24 and Western blot analysis
Assay type: binding
Settings: lysates of non-treated versus pervanadate treated Jurkat cells; Western blot, FIG. 2
Method: As biological material cell lysates prepared from non-treated or pervanadate treated Jurkat cells were used. The drug pulldown experiment was performed as described in Example 2 with lysate samples containing 50 mg of protein. Input lysate, flowthrough (non-bound fraction) and SDS-eluates (bound fraction) were separated on a SDS-polyacrylamide gel and transferred to a membrane. The blot was probed first with a general anti-ZAP-70 antibody (2A) and then with an antiphospho-ZAP-70 antibody (2B). Secondary detection antibodies were labeled with fluorescent dyes for detection with the Odyssey infrared imaging system. […]
For Western blot analysis bound proteins were eluted from the affinity matrix and subsequently separated by SDS-Polyacrylamide gel electrophoresis. ZAP-70 was detected with a general monoclonal antibody binding to the non-phosphorylated aminoterminal part of the protein and in addition with a phospho-specific antibody (FIG. 2). […]
Jurkat cells were homogenized in a Potter S homogenizer in lysis buffer: 50 mM Tris-HCl, 0.8% NP40, 5% glycerol, 150 mM NaCl, 1.5 mM MgCl2, 25 mM NaF, 1 mM sodium vanadate, 1 mM DTT, pH 7.5. […] The supernatant was transferred again to a fresh 50 ml falcon tube, the protein concentration was determined by a Bradford assay (BioRad) and samples containing 50 mg of protein per aliquot were prepared. […]

With `Cn1c(=O)c(-c2c(Cl)cccc2Cl)cc2cnc(Nc3ccc(CN)cc3)cc21` [aminopyrido-pyrimidin ligand 24, 7-(4-Aminomethyl-phenylamino)-3-(2,6-dichloro-phenyl)-1-methyl-1H-[1,6]naphthyridin-2-one] the “pulldown of ZAP-70 by the immobilized ligand” value was “preferentially pulls down a phosphorylated form of ZAP-70”.
